Data reported in patent publication US20110067123A1, “MAO-B ELEVATION AS AN EARLY PARKINSON'S DISEASE BIOMARKER” (priority 2008, published 2011).
Where two headings read alike, the source gives them in different places.

Tests used:
SN dopaminergic neurons = experiment: Mitochondrial superoxide in vivo (Mitosox Red) in SN dopaminergic neurons; parameters: species or system mouse; conditions: for increases in mitosox red fluorescence within dopaminergic SN neurons: dox-induced transgenics, co-treatment, FIG. 6; for Mean pixel intensity per cell / Total pixel fluorescence per cell: superoxide (mitosox red) in SN dopaminergic neurons, dox-induced plus co-treatment
Protocol: Mitosox Red (Molecular Probes) was used as an indicator to assess presence of superoxide within cellular mitochondria. 10 μg of Mitosox in 200 μl phosphate-buffered saline was injected into the tail vein of dox-induced transgenics versus controls. Animals were sacrificed 90 minutes later, brains rapidly dissected out and post-fixed overnight in 4% paraformaldehyde. Brains were sectioned at 30 μm using a cryostat. Cellular localization and site of Mitosox Red accumulation in the nigrostriatum was identified by immunofluorescence using anti-TH (Chemicon, 1:500), anti-IBA1 (Wako, 1:500) or anti-GFAP (DAKO, 1:500) antibodies visualized with Fluorescein Avidin D. Mitochondrial localization was confirmed by immunoanalysis using an anti-ATP synthase-specific antibody. Fluorescent imaging was done using a Zeiss LSM510 NLO confocal microscope and images procured using LSM software. Quantification of colocalization and fluorescent intensity was determined using the IMARIS software suite (Bitplane AG, Zurich, Switzerland) on selected cells from multiple sections.

[1] = tested on: ST dopaminergic synaptosomes; experiment: H2O2 (DCF fluorescence) in isolated ST dopaminergic synaptosomes; format: in vivo, mouse; conditions: for elevation of H2O2 levels in ST dopaminergic synaptosomes: dox-induced animals co-treated, DCF fluorescence, FIG. 5C
Protocol: (§1) Dopaminergic and non-dopaminergic striatal synaptosomes were isolated using a modified immuno-magnetic protocol. Briefly, synaptosomes were prepared from dissected striatal tissue. Dopaminergic synaptosomes were isolated using magnetic beads conjugated to anti-rabbit IgG (Miltenyi Biotech) after capturing them using a rabbit anti-DAT antibody (Chemicon). Under a magnetic field, bead-bound synaptosomes were passed through a column and washed; flow-through in the presence of the magnetic field yielded a fraction enriched in non-dopaminergic striatal synaptosomes. Elution performed in the absence of the magnetic field yielded fractions enriched in dopaminergic striatal synaptosomes. Equal quantities of various fractions of the synaptosomes isolated using DAT antibody including the starting material or control, the unbound fraction, the flow-through, the wash and the eluate were subjected to western analysis to assess relative dopaminergic versus non-dopaminergic synaptosomal purification. Western blots were performed using antibodies against TH (Chemicon 1:500), GABA (Chemicon, 1:1000) or SNAP-25 as a synaptic protein normalization control (Chemicon, 1:1000). Band densities were quantified using a Chemimager (Alpha Innotech, San Leandro, Calif.). Approximately 94% synaptosomes in the eluate were dopaminergic according to densitometric evaluation of the western blot.
Hydrogen peroxide levels were measured in the striatal dopaminergic and nondopaminergic synaptosomes prepared as above from various groups of mice. Mice were injected in the tail vein with ˜200 μl of DCFDA (Calbiochem) which was freshly diluted 100× with PBS from a stock of 100 mg/ml in DMSO as modified from Andrews et. al.. […] Hydrogen peroxide in the synaptosomes with or without 1 mg/ml catalase for 30 min after preparation was visualized as DCF fluorescence at 488 nm excitation and 512 nm emission in a Spectramax Gemini fluorescence plate reader. The relative fluorescence was normalized to synaptosomal protein which was quantified using the Bradford reagent, Bio-Rad.

mesencephalic cultures = experiment: Extracellular H2O2 in medium of dox-induced mesencephalic cultures (Amplex Red); format: cell-based, mouse; conditions: 10 μM deprenyl, 30 μM EUK189 or 500 nM apocynin, FIG. 4
Protocol: Primary mixed cultures were prepared from the midbrain of 14-day-old mice embryos from MAO-B transgenics and WT controls. Tissue was digested in Neurobasal medium containing 30 U/ml papain and 20 μg/ml DNase at 37° C. for 30 min and mechanically triturated. Dissociated cells were centrifuged at 500×g, resuspended in growth medium (Neurobasal medium supplemented with 10% FBS, 2 mM […], […] supplement without antioxidants, 50 U/ml penicillin, 50 U/ml streptomycin and 50 ng/ml GDNF [57]), and plated on poly-d-lysine-coated 8 well chamber slides (BD-Biocoat) at a density of 10^5 cells per ml. Mixed cultures were grown at 37° C. for 3-5 days before induction with 40 μg/ml doxycycline for 12 hours as per. […] H2O2 in the medium was assayed by Amplex Red per the manufacturer's instructions. Dopaminergic and microglial cell counts were performed following fixation of the cultured cells for 15 min with 4% formaldehyde following by T11^+ (Chemicon) or Iba1^+ (WAKO USA, Richmond, Va.) immunostaining or via uptake of ASP^+ (4-(4-(dimethylamino)styryl)-N-methylpyridinium iodide) (Invitrogen), a fluorescent analogue of dopamine. 10 μM ASP^+ was loaded on to the uninduced or induced cultures in the presence of 20 μM of desipramine to inhibit the norepinephrine transporter which would also take up the dye. ASP^+ fluorescence (red) was visualized in the T11^+ cells after immunostaining with anti-T11 antibody and Alexa fluor 488 conjugated secondary antibody. Averages of manual double blind T11^+ or fluorescent counts of three wells of culture with the same treatment were collected; counts were performed in triplicate.

dopaminergic SN neurons = experiment: Stereological TH+ SN cell counts in inducible astrocytic MAO-B transgenic mice; format: in vivo, mouse; conditions: dox-induced transgenic mice; co-treatment i.p. 10-30 mg/kg/day for two weeks; FIG. 3A
mitochondrial complex I = experiment: Mitochondrial complex I activity in isolated ST dopaminergic synaptosomes; format: in vivo, mouse; conditions: dox-induced animals co-treated
Protocol: as §1, with “blot. […]” for “blot.”

[2] = Striatal MPP+ levels by HPLC after MPTP injection; format: in vivo, mouse; conditions: 30 mg/kg MPTP, 90 minutes post injection
Protocol: (§2) Striatal tissue was harvested from dox versus untreated animals 90 minutes following injection of 30 mg/kg MPTP intraperitoneally, immediately immersed in ice cold 0.1 M perchloric acid and sonicated. MPP^+ was measured by HPLC as previously described. Dopamine levels were analyzed in striata dissected two weeks of induction or 24 hrs following MPTP injection post induction by HPLC followed by a 464 pulsed electrochemical detection (Neurochemistry Core, Center for Molecular Neuroscience, Vanderbilt University). Stereological cell counts were performed on immunostained brain sections from brains harvested two weeks after induction using either antibody against tyrosine hydroxylase (TH, Chemicon, 1:500) followed by biotin-labeled secondary antibody and development using DAB (Vector Laboratories). TH^+ cells were counted stereologically throughout the SNpc. Counts for dox removal were performed on brains dissected after removal of dox from the feed for a three week period. Sections were cut at a 40 μm thickness, and every 4th section was counted using a grid of 100×100 μm. Dissector size used was 35×35×12 μm. Neuronal numbers were assessed following NeuN^+ (Chemicon, 1:100) or GABA^+ (Chemicon, 1:1000) immunostaining and astrocytes via GFAP^+ (DAKO, 1:500) and s100-â (DAKO, 1:200) immunostaining. Cells were counted in the SN, striata, and cortex in three independent sections per condition and ten fields per section. […] Dopaminochrome was measured from striatal samples by HPLC as per Ochs et al.
To validate that our transgenic model expresses functionally active MAO-B, we assessed its vulnerability to acute systemic MPTP administration. […] Induced and uninduced transgenic mice and wildtype C57B16 littermates were treated with 30 mg/kg MPTP and striatal MPP levels measured via HPLC (Table 1). […]

[3] = Locomotor behavioral assessment (open field, Truscan); format: in vivo, mouse; conditions: induced mice, dox two weeks, deprenyl-treated
Protocol: Locomotor function was assessed using an automated Truscan photobeam apparatus (Colbourne Instruments, Allentown, Pa.) under illumination as previously described. Animals were habituated to the apparatus for 10 min then data collected over a 10-min period followed by analysis using Truscan 99 software. Spontaneous horizontal movement was assessed in both control and dox treated versus untreated transgenic mice via both ambulatory velocity and distance in a 10-min period.

[4] = tested on: tyrosine hydroxylase positive (TH+) cells in mesencephalic cultures; experiment: TH+ dopaminergic cell counts and morphology in dox-induced mesencephalic cultures; format: cell-based, mouse; conditions: 40 μg/ml dox, twelve hours; deprenyl co-treatment (10 μM); FIG. 2A
[5] = tested on: Parkinson's disease (PD) patients; conditions: cited from earlier work; for mortality rate: clinical PD, given after symptoms were present
microglia = experiment: Microglial activation (Iba1 immunochemistry) in the SN; format: in vivo, mouse; conditions: SN of dox-induced transgenics; FIG. 7B
Protocol: Immunochemistry was performed on cryosections derived from the SN, striata, and CTX of fixed perfused brains from dox-induced transgenics versus controls. Astrocytic activation was assessed using primary antibodies against GFAP and s100-β. Microglial activation was detected using primary antibodies against […] Horse radish peroxidase or avidin-conjugated secondary antibodies were used to detect primary antibodies following either DAB or Fluorescein/Texas Red staining.

astroglia = experiment: Astrocyte activation by GFAP immunostaining in induced transgenic mice; format: in vivo, mouse; conditions: dox-treated transgenic mice, deprenyl co-treatment
Protocol: as §2, with “Stereological cell counts were performed on immunostained brain sections from brains harvested two weeks after induction using either antibody against tyrosine hydroxylase (TH, Chemicon, 1:500) followed by biotin-labeled secondary antibody and development using DAB (Vector Laboratories).” left out, “Counts for dox removal were performed on brains dissected after removal of dox from the feed for a three week period.” left out, “Dissector size used was 35×35×12 μm.” left out
Immunochemistry was performed on cryosections derived from the SN, striata, and CTX of fixed perfused brains from dox-induced transgenics versus controls. Astrocytic activation was assessed using primary antibodies against GFAP and s100-β. […]

Row | Compound | increases in mitosox red fluorescence within dopaminergic SN neurons (SN dopaminergic neurons) | Mean pixel intensity per cell (SN dopaminergic neurons) | Total pixel fluorescence per cell (SN dopaminergic neurons) | elevation of H2O2 levels in ST dopaminergic synaptosomes [1] | increase in extracellular H2O2 (mesencephalic cultures) | loss of CI activity in dopaminergic synaptosomes (mitochondrial complex I) | other results
1 | CC(=O)O.CCOc1cccc(C=NCCN=Cc2cccc(OCC)c2[O-])c1[O-].[Mn] [EUK-189] | prevented | 15.4 ± 4.0 | 126,757 ± 23,798 | preventable | prevented the increase | attenuated | dopaminergic SN cell loss (dopaminergic SN neurons): attenuated
2 | C[n+]1ccc(-c2ccccc2)cc1 [MPP+] | – | – | – | – | – | – | Striatal MPP+ levels ([2]; Dox (induced transgenic mice)): 182 ± 3.4 ng/mg protein; Striatal MPP+ levels ([2]; No Dox (uninduced transgenic mice)): 118 ± 2.3 ng/mg protein; Striatal MPP+ levels ([2]; WT (wildtype C57Bl6 littermates)): 100 ± 3.5 ng/mg protein
3 | COc1cc(C(C)=O)ccc1O [apocynin] | – | – | – | – | partial reduction | – | –
4 | C#CCN(C)[C@H](C)Cc1ccccc1 [deprenyl] | prevented | 10.2 ± 2.1 | 91,937 ± 19,107 | preventable | prevented the increase | attenuated | locomotor activity [3]: completely unaffected; loss in the number of TH+ cells [4]: attenuated; mortality rate [5]: ineffective; mortality rate ([5]; listed as selegiline): no effect; requirement of L-DOPA supplementation ([5]; early stages of symptomatic PD): delayed and reduced; microglial activation (microglia): prevented; astroglial branching (activation) and increased astroglial brain numbers, GFAP (astroglia): inhibited
5 | Catalase | – | – | – | – | – | – | DCF fluorescence of dopaminergic synaptosomes from induced animals ([1]; synaptosomes treated with 1 mg/ml catalase for 30 min after preparation): reduced the fluorescence to below uninduced levels
